# Data reported in patent publication US7247626B2, “Pyrazolopyrimidine derivatives and pharmaceutical compositions containing them” (SmithKline Beecham Corporation, priority 2002, dated 2007).
# System: HSV-1
# Test: HSV-1 infection of Vero 76 cells, viral DNA hybridization capture assay
# Type: cell-based
# Settings: Human alphaherpesvirus 1; HSV-1 (MOI=0.001) in Vero 76 cells, 40–48 hours incubation, HSV DNA hybridization with chemiluminescence detection
# Protocol: Vero 76 cells were maintained in MEM with Earle's salts, L-glutamine, 8% FBS (Hyclone, A-1111-L) and 100 units/mL Penicillin-100 μg/mL Streptomycin. For assay conditions, FBS was reduced to 2%. Cells are seeded into 96-well tissue culture plates at a density of 5×10^4 cells/well after being incubated for 45 min at 37° C. in the presence of HSV-1 or HSV-2 (MOI=0.001). Test compounds are added to the wells and the plates are incubated at 37° C. for 40–48 hours. Cell lysates are prepared as follows: media was removed and replaced with 150 μL/well 0.2 N NaOH with 1% Igepal CA 630 or NP-40. Plates were incubated up to 14 days at room temperature in a humidified chamber to prevent evaporation.
# For the detection probe, a gel-purified, digoxigenin-labeled, […] PCR fragment of the HSV UL-15 sequence was utilized. PCR conditions included 0.5 μM primers, 180 μM dTTP, 20 μM dUTP-digoxigenin (Boehringer Mannheim 1558706), 200 μM each of dATP, dCTP, and dGTP, 1×PCR Buffer II (Perkin Elmer), 2.5 mM, MgCl2, 0.025 units/μL of AmpliTaq Gold polyerase (Perkin Elmer), and 5 ng a gel-purified HSV DNA per 100 μL Extension conditions were 10 min at 95° C., followed by 30 cycles of 95° C. for 1 min, 55° C. for 30 sec, and 72° C. for 2 min. The amplification was completed with a 10-min incubation at 72° C. Primers were selected to amplify a 728 bp probe spanning a section of the HSV1 UL15 open reading frame (nucleotides 249–977). Single-stranded transcripts were purified with Promega M13 Wizard kits. The final product was mixed 1:1 with a mixture of 6 M GuSCN, 100 mM EDTA and 200 μg/mL herring sperm DNA and stored at 4° C.
# The capture DNA plasmid (HSV UL13 region in pUC) was linearized by cutting with Xba I, denatured for 15 min at 95° C. and diluted immediately into Reacti-Bind DNA Coating Solution (Pierce, 17250, diluted 1:1 with TE buffer, pH 8) at 1 ng/μL 75 μl/well were added to Corning (#3922 or 9690) white 96-well plates and incubated at room temperature for at least 4 hrs before washing twice with 300 μL/well 0.2×SSC/0.05% Tween-20 (SSC/T buffer). The plates were then incubated overnight at room temperature with 150 μL/well 0.2 N NaOH, 1% IGEPAL and 10 μg/mL herring sperm DNA.
# Twenty-seven (27) μL of cell lysate was combined with 45 μL of hydridization solution (final concentration: 3M GuSCN, 50 mM EDTA, 100 μg/ml salmon sperm DNA, 5× Denhardt's solution, 0.25× APE, and 5 ng of the digoxigenin-labeled detection probe). APE is 1.5 M NH4-acetate, 0.15 M NH4H2phosphate, and 5 mM EDTA adjusted to pH 6.0. Mineral oil (50 μL) was added to prevent evaporation. The hybridization plates were incubated at 95° C. for 10 minutes to denature the DNA, then incubated at 42° C. overnight. The wells were washed 6× with 300 μL/well SSC/T buffer then incubated with 75 μL/well anti-digoxigenin-HRP-conjugated antibody (Boehringer Mannheim 1207733, 1:5000 in TE) for 30 min at room temperature. The wells were washed 6× with 300 μL/well with PBS/0.05% Tween-20 before 75 μL/well SuperSignal LBA substrate (Pierce) was added. The plates were incubated at room temperature for 30 minutes and chemiluminescence was measured in a Wallac Vietor reader.
# The following results were obtained for HSV-1.
compound,measurement,value
"CCCOc1ccc(-c2nn3c(NC4CCCC4)nccc3c2-c2ccnc(NC3CCCC3)n2)cc1 [Example 28, N-Cyclopentyl-3-[2-(cyclopentylamino)pyrimidin-4-yl]-2-(4-propoxyphenyl)pyrazolo[1,5-c]pyrimidin-7-amine]",IC50,500 nM
"CC(C)(C)Nc1nccc2c(-c3ccnc(NC4CCCC4)n3)c(-c3ccc(F)cc3)nn12 [Example 29, N-(tert-Butyl)-3-[2-(cyclopentylamino)pyrimidin-4-yl]-2-(4-fluorophenyl)pyrazolo[1,5-c]pyrimidin-7-amine]",IC50,7000 nM
"Fc1ccc(-c2nn3c(N4CCCC4)nccc3c2-c2ccnc(NC3CCCC3)n2)cc1 [Example 30, N-Cyclopentyl-4-[2-(4-fluorophenyl)-7-pyrrolidin-1-ylpyrazolo[1,5-c]pyrimidin-3-yl]pyrimidin-2-amine]",IC50,2000 nM
"Fc1ccc(-c2nn3c(N4CCCCC4)nccc3c2-c2ccnc(NC3CCCC3)n2)cc1 [Example 31, N-Cyclopentyl-4-[2-(4-fluorophenyl)-7-piperidin-1-ylpyrazolo[1,5-c]pyrimidin-3-yl]pyrimidin-2-amine]",IC50,1000 nM
